According to publication PMC7662321, “Andrographolide and Its 14-Aryloxy Analogues Inhibit Zika and Dengue Virus Infection” (Molecules, 2020):
Like-named read-outs stand apart in the source and are kept apart here.

Legend:
[1] = system: ZIKV; assay: Percentage of ZIKV infection of A549 cells by flow cytometry; type: cell-based, Zika virus; details: A549, MOI 5, 10 and 25 µM, 24 h, vs vehicle
Protocol: To confirm the effects of andrographolide and the andrographolide analogues on ZIKV infection, A549 cells were infected with ZIKV at MOI of 5 for 2 h, and subsequently treated with the compounds at concentrations of 10 and 25 μM or with vehicle for 24 h. The cells were harvested for determination of the percentage of infection by flow cytometry, while the supernatants were collected for determination of viral titer by standard plaque assay.
HEK293T/17 or A549 cells were cultured in six-well plates under standard conditions until the cells reached 80% confluence. HEK293T/17 cells were infected with DENV 2, while A549 cells were infected with ZIKV Thai strain at MOI 5 for 2 h at 37 °C and 5% CO2 in culture medium without FBS. Mock infection was undertaken in parallel. After the infection period, the medium was removed and replaced with complete medium (including FBS) containing 0.1% DMSO (no treatment control) or the appropriate concentration of each compound and cells were again incubated under standard conditions. At 24 h post-treatment, cells were harvested for determination of effects of compounds on percentage of infection and supernatant was collected for determination of viral productivity. All experiments were undertaken independently in triplicate with duplicate plaque assay.
Mock- or viral-infected cells (with or without compound treatment) were harvested at an appropriate time point then incubated with 10% normal goat serum (NGS; Gibco Invitrogen) in PBS-immunofluorescence assay (IFA) buffer on ice for 30 min. The cells were washed with 800 µL of 1% BSA/PBS-IFA and fixed with 200 µL of 4% paraformaldehyde in PBS-IFA at room temperature in the dark for 20 min. After washing with 800 µL of 1% BSA/PBS-IFA, cells were permeabilized with 200 µL of 0.2% Triton X-100 in PBS-IFA for 10 min at room temperature in the dark. Subsequently, the cells were washed with 800 µL of 1% BSA/PBS-IFA followed by overnight incubation with 50 µL of primary antibody (1:150 dilution of pan-specific anti-dengue virus E protein antibody HB114 for DENV and 1:2 dilution of anti-flavivirus antibody HB112 for ZIKV). After washing twice with 800 µL of 1% BSA/PBS-IFA, the cells were incubated with 50 µL of a goat anti-mouse IgG conjugated with fluorescein isothiocyanate (FITC; KPL, Guilford, UK) diluted 1:40 with 1% BSA/PBS-IFA at room temperature in the dark for 1 h. The cells were washed twice with 800 µL of 1% BSA/PBS-IFA and resuspended in 100 µL of PBS-IFA. The fluorescence signal was analyzed by flow cytometry on a BD FACalibur cytometer (Becton Dickinson, BD Biosciences, San Jose, CA, USA) using CellQuest™ software (Version 6). All experiments were undertaken independently in triplicate. All raw flow cytometry data plots are provided in Supplementary Figures S13–S19.

[2] = system: DENV 2; parameters: method as in PMID 30396090; details: HepG2 cells; read-out: EC50 towards DENV 2; cited from earlier work
[3] = system: DENV 2; parameters: method as in PMID 30396090; details: HeLa cells; read-out: EC50 towards DENV 2; cited from earlier work
[4] = parameters: method as in PMID 11081986; details: cited from earlier work

Structure (SMILES) | number of ZIKV-infected cells (percentage of infection) [1] | EC50 [2] [µM] | EC50 [3] [µM] | bioavailability [4]
C=C1CC[C@@H]2[C@](C)(CO)[C@H](O)CC[C@@]2(C)[C@@H]1C/C=C1/C(=O)OC[C@H]1O [Andrographolide] | significantly reduced | 21.3 | 22.7 | relatively poor
C=C1CC[C@@H]2[C@]3(C)COC(C)(C)O[C@@H]3CC[C@@]2(C)[C@@H]1C/C=C1/C(=O)OC[C@@H]1Oc1c(Cl)cc(Cl)c2ccc(C)nc12 [ZAD-1] | significantly reduced | – | – | –
